Results: PMC10590383, “Repurposing conformational changes in ANL superfamily enzymes to rapidly generate biosensors for organic and amino acids” (Nature Communications, 2023)

Experiment: pH stability of […]-Phe3 (dose–response and fluorescence intensity at pH 6.5, 7.5, 8.5)
Type: biochemical
Details: for fluorescence response of GECFINDER, AVE of 3 repeats: Supplementary Fig. 3 e; for fluorescence intensity, AVE of 3 repeats: Supplementary Fig. 3 d, 100 μM Phe
Source text: As cpEGFP is sensitive to pH, we conducted a dose-response curve and fluorescence intensity analysis of […]-Phe3 at varying pH levels. […] In addition, we expanded the range of ligand-binding domains (LBDs) applicable to […] and attempted optimization of insertion sites for cpEGFP with limited success. Please refer to Supplemental Note 1 for detailed information.
The study conducted dose–response curve, substrate specificity, and fluorescent spectrum analyses in 100-mM Tris buffer (pH = 7.5), while pH stability experiments were performed in 100-mM Tris buffer at three different pH values (6.5, 7.5, and 8.5) at room temperature. […] protein at a concentration of 0.75 μM, various small molecule concentrations, 1 mM ATP, and 2.5 mM MgCl2 were used in the experiments. Fluorescent signals were detected using a Microplate Reader (Synergy H4, Bio Tek) at an excitation/emission wavelength of 460 nm/510 nm or 480 nm/510 nm. The dose-response curve was determined immediately after the addition of the analyte. The total duration of the measurement was 15 min, with readings taken at one-minute intervals. The dose-response curve was plotted using the fluorescence values obtained after achieving stability in the fluorescence signal. The dose-response curves were fitted using the logistic model LOGISTIC5 available in Origin 2021, which could provide a more adequate fit to asymmetric dose-response data[62],[63]. Excitation spectra were scanned from 300 to 540 nm with a step size of 5 nm, and the emission wavelength was set to 560 nm. Emission spectra were scanned from 470 to 700 nm with a step size of 5 nm, and the excitation wavelength was set to 450 nm. The thermal stability of […] was analyzed using the UNcle multifunctional protein stability analysis system. Measurements were performed in 20 mM MOPS buffer with 2 mM DTT at a sample concentration of 1 mg/mL. Absolute fluorescence quantum yields were measured using an absolute photoluminescence quantum yield spectrometer (FS5, Edinburgh). […]
β-P he. […]
All data shown are mean s ± S.D . (n =3 biologically inde pendent samples). Source
data are provided as a Source Data file.
(also on this page, place not known: 10210-210-3 Normalized Normalized […]-Leu3 10-4 10⁵ 2.5 Normalized ΔF/F 0 AlaAr As p As […]Pr SerThr ValTrpTyr Ph R-β-Ph β-Ph e 2.5Normalized ΔF/F 0 Substrate 100μM 100μM 100μM Fluorescence ...K ...N GrsA-PheA PpsA-GluA -QSVF- 10⁰ 10⁵ […]-Ile(VF-QS) Normalized ΔF/F 0 (μM) 0mM 0.75mM His 12×10³Intensity f g Substrate specificity engineering insertion optimization […]. Dose–response purified […]-Leu2 increasing concentrations normalized ΔF/F0 […]-SβF acids R/S- β-Phe. concentrations substrates Fluorescence purified […]-Phe3 different control fluorescence substrate added. response purified […]-Phe3 increasing concentrations different junction domain Dose–response curve purified […]-Ile (VF-QS) increasing concentrations Normalized ΔF/F0 increased after excitation).h, Difference fluorescence intensity […]-His (VF-QS) presence histidine compared control means S.D. (n=3 independent) […]

SMILES: N[C@@H](Cc1ccccc1)C(=O)O [Phe]
- fluorescence response of GECFINDER, AVE of 3 repeats (pH6.5, Phe 0.001 μM): -5.5222e-17
- fluorescence response of GECFINDER, AVE of 3 repeats (pH6.5, Phe 0.005 μM): 0.01941
- fluorescence response of GECFINDER, AVE of 3 repeats (pH6.5, Phe 0.01 μM): 0.04517
- fluorescence response of GECFINDER, AVE of 3 repeats (pH6.5, Phe 0.05 μM): 0.1259
- fluorescence response of GECFINDER, AVE of 3 repeats (pH6.5, Phe 0.1 μM): 0.2201
- fluorescence response of GECFINDER, AVE of 3 repeats (pH6.5, Phe 0.5 μM): 0.7727
- fluorescence response of GECFINDER, AVE of 3 repeats (pH6.5, Phe 1 μM): 1.198
- fluorescence response of GECFINDER, AVE of 3 repeats (pH6.5, Phe 5 μM): 2.235
- fluorescence response of GECFINDER, AVE of 3 repeats (pH6.5, Phe 10 μM): 2.5727
- fluorescence response of GECFINDER, AVE of 3 repeats (pH6.5, Phe 25 μM): 2.94
- fluorescence response of GECFINDER, AVE of 3 repeats (pH6.5, Phe 50 μM): 3.093
- fluorescence response of GECFINDER, AVE of 3 repeats (pH6.5, Phe 100 μM): 3.166
- fluorescence response of GECFINDER, AVE of 3 repeats (pH7.5, Phe 0.001 μM): 0
- fluorescence response of GECFINDER, AVE of 3 repeats (pH7.5, Phe 0.005 μM): 0.04668
- fluorescence response of GECFINDER, AVE of 3 repeats (pH7.5, Phe 0.01 μM): 0.05356
- fluorescence response of GECFINDER, AVE of 3 repeats (pH7.5, Phe 0.05 μM): 0.1413
- fluorescence response of GECFINDER, AVE of 3 repeats (pH7.5, Phe 0.1 μM): 0.2634
- fluorescence response of GECFINDER, AVE of 3 repeats (pH7.5, Phe 0.5 μM): 0.9215
- fluorescence response of GECFINDER, AVE of 3 repeats (pH7.5, Phe 1 μM): 1.384
- fluorescence response of GECFINDER, AVE of 3 repeats (pH7.5, Phe 5 μM): 2.412
- fluorescence response of GECFINDER, AVE of 3 repeats (pH7.5, Phe 10 μM): 2.788
- fluorescence response of GECFINDER, AVE of 3 repeats (pH7.5, Phe 25 μM): 3.108
- fluorescence response of GECFINDER, AVE of 3 repeats (pH7.5, Phe 50 μM): 3.25
- fluorescence response of GECFINDER, AVE of 3 repeats (pH7.5, Phe 100 μM): 3.385
- fluorescence response of GECFINDER, AVE of 3 repeats (pH8.5, Phe 0.001 μM): 5.725e-17
- fluorescence response of GECFINDER, AVE of 3 repeats (pH8.5, Phe 0.005 μM): 0.003084
- fluorescence response of GECFINDER, AVE of 3 repeats (pH8.5, Phe 0.01 μM): 0.009629
- fluorescence response of GECFINDER, AVE of 3 repeats (pH8.5, Phe 0.05 μM): 0.04022
- fluorescence response of GECFINDER, AVE of 3 repeats (pH8.5, Phe 0.1 μM): 0.0788
- fluorescence response of GECFINDER, AVE of 3 repeats (pH8.5, Phe 0.5 μM): 0.5458
- fluorescence response of GECFINDER, AVE of 3 repeats (pH8.5, Phe 1 μM): 0.9288
- fluorescence response of GECFINDER, AVE of 3 repeats (pH8.5, Phe 5 μM): 1.837
- fluorescence response of GECFINDER, AVE of 3 repeats (pH8.5, Phe 10 μM): 2.121
- fluorescence response of GECFINDER, AVE of 3 repeats (pH8.5, Phe 25 μM): 2.449
- fluorescence response of GECFINDER, AVE of 3 repeats (pH8.5, Phe 50 μM): 2.595
- fluorescence response of GECFINDER, AVE of 3 repeats (pH8.5, Phe 100 μM): 2.661
- fluorescence intensity, AVE of 3 repeats (pH6.5): 11375
- fluorescence intensity, AVE of 3 repeats (pH7.5): 18474.7
- fluorescence intensity, AVE of 3 repeats (pH8.5): 19389
